According to patent US10385097B2, “Ether compounds for treatment of medical disorders” (Achillion Pharmaceuticals, Inc., priority 2015, dated 2019):
Where two headings read alike, the source gives them in different places.

Molecular target: T1, Human Factor D (Homo sapiens, UniProt P00746)
T1 construct: purified from human serum; purchased Complement Technology, Inc; host or cells: human serum (natural protein, not recombinant)
Assay: Human Factor D Assay
Type: biochemical
Description: Example 8. Human Factor D Assay
Human Factor D (purified from human serum, Complement Technology, Inc.) at 80 nM final concentration is incubated with test compound at various concentrations for 5 minutes at room temperature in 50 mM Tris, 1M NaCl, pH 7.5. A synthetic substrate Z-L-Lys-SBzl and DTNB (Ellman's reagent) are added to final concentrations of 100 μM each. Absorbance at 405 nm (A405) is recorded at 30 second intervals for 30 minutes using a microplate spectrophotometer. IC50 values are calculated by nonlinear regression of complement Factor D reaction rates as a function of test compound concentration.

[1] = Table 1, Human Factor D 80 nM, substrate Z-L-Lys-SBzl, read-out: IC50
[2] = Table 2, Human Factor D 80 nM, substrate Z-L-Lys-SBzl, read-out: IC50
[3] = Table 3, Human Factor D 80 nM, substrate Z-L-Lys-SBzl, read-out: (IC50 (Stars))

T1 sequence (P00746 26-253): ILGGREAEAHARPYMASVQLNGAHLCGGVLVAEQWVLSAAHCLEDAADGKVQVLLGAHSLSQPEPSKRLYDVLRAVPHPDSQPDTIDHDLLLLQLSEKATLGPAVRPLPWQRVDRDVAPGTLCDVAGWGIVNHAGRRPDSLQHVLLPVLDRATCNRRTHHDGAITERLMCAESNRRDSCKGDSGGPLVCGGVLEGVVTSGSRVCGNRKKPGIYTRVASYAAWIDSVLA

Compound | IC50 [1] [nM] | further results
CC(=O)c1cn(CC(=O)N2C[C@H](F)C[C@H]2C(=O)Nc2cccc(Oc3ccccc3)c2)c2cc(OCP(=O)(O)O)ccc12 [Compound 26, (3-acetyl-1-(2-((2S,4R)-4-fluoro-2-(3-phenoxyphenylcarbamoyl)pyrrolidin-1-yl)-2-oxoethyl)-1H-indol-6-yloxy)methylphosphonic acid] | < 1000 | –
CC(=O)c1cn(CC(=O)N2C[C@H](F)C[C@H]2C(=O)Nc2cccc(OC(F)(F)F)c2F)c2cc(OCP(=O)(O)O)ccc12 [Compound 27, (3-acetyl-1-(2-((2S,4R)-4-fluoro-2-(2-fluoro-3-(trifluoromethoxy)phenylcarbamoyl)pyrrolidin-1-yl)-2-oxoethyl)-1H-indol-6-yloxy)methylphosphonic acid] | < 1000 | –
CC(C)(C)NS(=O)(=O)COc1ccc2c(C(N)=O)nn(CC(=O)N3C[C@H](F)C[C@H]3C(=O)Nc3cccc(-c4ccccc4Cl)c3F)c2c1 [Compound 28] | < 1000 | –
NC(=O)c1nn(CC(=O)N2C[C@H](F)C[C@H]2C(=O)Nc2cccc(-c3ccccc3Cl)c2F)c2cc(OCS(N)(=O)=O)ccc12 [Compound 29] | < 1000 | –
CC(=O)c1cn(CC(=O)N2C[C@H](F)C[C@H]2C(=O)NCc2cccc(Cl)c2F)c2cc(Oc3ncccn3)ccc12 [Compound 30, (2S,4R)-1-(2-(3-Acetyl-6-(pyrimidin-2-yloxy)-1H-indol-1-yl)acetyl)-N-(3-chloro-2-fluorobenzyl)-4-fluoropyrrolidine-2-carboxamide] | < 1000 | –
NC(=O)c1nn(CC(=O)N2C[C@H](F)C[C@H]2C(=O)Nc2cccc(-c3ccccc3Cl)c2F)c2ccc(Oc3cncnc3)cc12 [Compound 31, 1-(2-((2S,4R)-2-((2′-Chloro-2-fluoro-[1,1′-biphenyl]-3-yl)carbamoyl)-4-fluoropyrrolidin-1-yl)-2-oxoethyl)-5-(pyrimidin-5-yloxy)-1H-indazole-3-carboxamide] | – | IC50: < 1000 nM
CC(=O)c1cn(CC(=O)N2C[C@H](F)C[C@H]2C(=O)Nc2cccc(-c3ccccc3Cl)c2F)c2cc(Oc3ncccn3)ccc12 [Compound 32, (2S,4R)-1-(2-(3-Acetyl-6-(pyrimidin-2-yloxy)-1H-indol-1-yl)acetyl)-N-(2′-chloro-2-fluoro-[1,1′-biphenyl]-3-yl)-4-fluoropyrrolidine-2-carboxamide] | < 1000 | –
CC(=O)c1cn(CC(=O)N2C[C@H](F)C[C@H]2C(=O)Nc2cccc(-c3ccccc3Cl)c2F)c2ccc(Oc3ncc(Br)cn3)cc12 [Compound 33, (2S,4R)-1-(2-(3-Acetyl-5-((5-bromopyrimidin-2-yl)oxy)-1H-indol-1-yl)acetyl)-N-(2′-chloro-2-fluoro-[1,1′-biphenyl]-3-yl)-4-fluoropyrrolidine-2-carboxamide] | < 1000 | –
CC(=O)c1cn(CC(=O)N2[C@@H]3C[C@@H]3C[C@H]2C(=O)Nc2cccc(-c3ccccc3Cl)c2F)c2ccc(Oc3ncc(Br)cn3)cc12 [Compound 34, (1R,3S,5R)-2-(2-(3-Acetyl-5-((5-bromopyrimidin-2-yl)oxy)-1H-indol-1-yl)acetyl)-N-(2′-chloro-2-fluoro-[1,1′-biphenyl]-3-yl)-2-azabicyclo[3.1.0]hexane-3-carboxamide] | < 1000 | –
CC(=O)c1cn(CC(=O)N2C[C@H](F)C[C@H]2C(=O)Nc2cccc(Br)n2)c2ccc(Oc3ncc(Br)cn3)cc12 [Compound 35, (2S,4R)-1-(2-(3-acetyl-5-(5-bromopyrimidin-2-yloxy)-1H-indol-1-yl)acetyl)-N-(6-bromopyridin-2-yl)-4-fluoropyrrolidine-2-carboxamide] | < 1000 | –
CC(=O)c1cn(CC(=O)N2C[C@H](F)C[C@H]2C(=O)Nc2cccc(-c3ccccc3Cl)c2F)c2ccc(Oc3cnc(C#N)nc3)cc12 [Compound 36, (2S,4R)-1-(2-(3-acetyl-5-(2-cyanopyrimidin-5-yloxy)-1H-indol-1-yl)acetyl)-N-(2′-chloro-2-fluorobiphenyl-3-yl)-4-fluoropyrrolidine-2-carboxamide] | < 1000 | –
CC(=O)c1cn(CC(=O)N2C[C@H](F)C[C@H]2C(=O)Nc2cccc(-c3ccccc3Cl)c2F)c2ccc(Oc3ncc(F)cn3)cc12 [Compound 37, (2S,4R)-1-(2-(3-acetyl-5-(5-fluoropyrimidin-2-yloxy)-1H-indol-1-yl)acetyl)-N-(2′-chloro-2-fluorobiphenyl-3-yl)-4-fluoropyrrolidine-2-carboxamide] | < 1000 | –
CC(=O)c1cn(CC(=O)N2C[C@H](F)C[C@H]2C(=O)Nc2cccc(-c3ccccc3Cl)c2F)c2ccc(Oc3ncccn3)cc12 [Compound 38, (2S,4R)-1-(2-(3-acetyl-5-(pyrimidin-2-yloxy)-1H-indol-1-yl)acetyl)-N-(2′-chloro-2-fluorobiphenyl-3-yl)-4-fluoropyrrolidine-2-carboxamide] | < 1000 | –
CC(=O)c1cn(CC(=O)N2C[C@H](F)C[C@H]2C(=O)Nc2cccc(Br)n2)c2ccc(Oc3ncccn3)cc12 [Compound 39, (2S,4R)-1-(2-(3-acetyl-5-(pyrimidin-2-yloxy)-1H-indol-1-yl)acetyl)-N-(6-bromopyridin-2-yl)-4-fluoropyrrolidine-2-carboxamide] | < 1000 | –
CC(=O)c1cn(CC(=O)N2C[C@H](F)C[C@H]2C(=O)Nc2cccc(-c3ccccc3Cl)c2F)c2ccc(Oc3ncc(C)cn3)cc12 [Compound 40, (2S,4R)-1-(2-(3-acetyl-5-(5-methylpyrimidin-2-yloxy)-1H-indol-1-yl)acetyl)-N-(2′-chloro-2-fluorobiphenyl-3-yl)-4-fluoropyrrolidine-2-carboxamide] | < 1000 | –
CC(=O)c1cn(CC(=O)N2C[C@H](F)C[C@H]2C(=O)Nc2cccc(Br)n2)c2ccc(Oc3ncc(C)cn3)cc12 [Compound 41, (2S,4R)-1-(2-(3-acetyl-5-(5-methylpyrimidin-2-yloxy)-1H-indol-1-yl)acetyl)-N-(6-bromopyridin-2-yl)-4-fluoropyrrolidine-2-carboxamide] | < 1000 | –
CC(=O)c1cn(CC(=O)N2C[C@H](F)C[C@H]2C(=O)Nc2cccc(-c3ccccc3Cl)c2F)c2ccc(Oc3ncc(C(F)(F)F)cn3)cc12 [Compound 42, (2S,4R)-1-(2-(3-acetyl-5-(5-(trifluoromethyl)pyrimidin-2-yloxy)-1H-indol-1-yl)acetyl)-N-(2′-chloro-2-fluorobiphenyl-3-yl)-4-fluoropyrrolidine-2-carboxamide] | < 1000 | –
CC(=O)c1cn(CC(=O)N2C[C@H](F)C[C@H]2C(=O)Nc2cccc(-c3ccccc3Cl)c2F)c2ccc(Oc3cnc(Cl)nc3)cc12 [Compound 43, (2S,4R)-1-(2-(3-acetyl-5-(2-chloropyrimidin-5-yloxy)-1H-indol-1-yl)acetyl)-N-(2′-chloro-2-fluorobiphenyl-3-yl)-4-fluoropyrrolidine-2-carboxamide] | – | IC50: < 1000 nM
CC(=O)c1cn(CC(=O)N2C[C@H](F)C[C@H]2C(=O)Nc2cccc(-c3ccccc3Cl)c2F)c2ccc(O[C@@H]3CO[C@H]4[C@@H]3OC[C@H]4O)cc12 [Compound 44] | – | IC50 [2]: < 1000 nM
CC(=O)c1cn(CC(=O)N2C[C@H](F)C[C@H]2C(=O)Nc2cccc(Br)n2)c2ccc(O[C@@H]3CO[C@H]4[C@@H]3OC[C@H]4O)cc12 [Compound 45, (2S,4R)-1-(2-(3-acetyl-5-((3R,3aR,6R,6aR)-6-hydroxyhexahydrofuro[3,2-b]furan-3-yloxy)-1H-indol-1-yl)acetyl)-N-(6-bromopyridin-2-yl)-4-fluoropyrrolidine-2-carboxamide] | – | IC50 [2]: < 1000 nM
CO[C@@H]1CO[C@H]2[C@@H]1OC[C@H]2Oc1ccc2c(c1)c(C(C)=O)cn2CC(=O)N1C[C@H](F)C[C@H]1C(=O)Nc1cccc(-c2ccccc2Cl)c1F [Compound 46, (2S,4R)-1-(2-(3-acetyl-5-((3R,3aR,6R,6aR)-6-methoxyhexahydrofuro[3,2-b]furan-3-yloxy)-1H-indol-1-yl)acetyl)-N-(2′-chloro-2-fluorobiphenyl-3-yl)-4-fluoropyrrolidine-2-carboxamide] | – | IC50 [2]: < 1000 nM
CO[C@@H]1CO[C@H]2[C@@H]1OC[C@H]2Oc1ccc2c(c1)c(C(C)=O)cn2CC(=O)N1C[C@H](F)C[C@H]1C(=O)Nc1cccc(Br)n1 [Compound 47, (2S,4R)-1-(2-(3-acetyl-5-((3R,3aR,6R,6aR)-6-methoxyhexahydrofuro[3,2-b]furan-3-yloxy)-1H-indol-1-yl)acetyl)-N-(6-bromopyridin-2-yl)-4-fluoropyrrolidine-2-carboxamide] | – | IC50 [2]: < 1000 nM
CC(=O)c1cn(CC(=O)N2C[C@H](F)C[C@H]2C(=O)NCc2ccccc2)c2ccc(OCS(=O)(=O)NC(C)(C)C)cc12 [Compound 129, (2S,4R)-1-(2-(3-Acetyl-5-((N-(tert-butyl)sulfamoyl)methoxy)-1H-indol-1-yl)acetyl)-N-benzyl-4-fluoropyrrolidine-2-carboxamide] | – | IC50 [3]: < 1000 nM
CC(=O)c1cn(CC(=O)N2C[C@H](F)C[C@H]2C(=O)NCc2ccccc2)c2ccc(OCS(N)(=O)=O)cc12 [Compound 130, (2S,4R)-1-(2-(3-Acetyl-5-(sulfamoylmethoxy)-1H-indol-1-yl)acetyl)-N-benzyl-4-fluoropyrrolidine-2-carboxamide] | – | IC50 [3]: < 1000 nM
CC(=O)c1cn(CC(=O)N2C[C@H](F)C[C@H]2C(=O)NCCc2ccccc2)c2ccc(OCS(=O)(=O)NC(C)(C)C)cc12 [Compound 132, (2S,4R)-1-(2-(3-Acetyl-5-((N-(tert-butyl)sulfamoyl)methoxy)-1H-indol-1-yl)acetyl)-4-fluoro-N-phenethylpyrrolidine-2-carboxamide] | – | IC50 [3]: < 1000 nM
CC(=O)c1cn(CC(=O)N2C[C@H](F)C[C@H]2C(=O)NCCc2ccccc2)c2ccc(OCS(N)(=O)=O)cc12 [Compound 133, (2S,4R)-1-(2-(3-Acetyl-5-(sulfamoylmethoxy)-1H-indol-1-yl)acetyl)-4-fluoro-N-phenethylpyrrolidine-2-carboxamide] | – | IC50 [3]: 1000 to 10000 nM
